Experimental data from ChEMBL document CHEMBL1201862, “PubChem BioAssay data set” (2004).
The source made the active and inactive calls.

How the values were obtained:
MDCK [1] = experiment: antiviral activity against H1N1 influenza, dose response, cell-based, strain KY136 (AID 540257); assay type: functional; settings: Canis lupus familiaris
[2] = molecular target: T1, High affinity choline transporter 1 (Homo sapiens, UniProt Q9GZV3); experiment: human choline transporter blockers, potency – cell-based, 5-point CRC, membrane potential dye, dose response (AID 504840); assay type: functional
T1 sequence (Q9GZV3 whole entry): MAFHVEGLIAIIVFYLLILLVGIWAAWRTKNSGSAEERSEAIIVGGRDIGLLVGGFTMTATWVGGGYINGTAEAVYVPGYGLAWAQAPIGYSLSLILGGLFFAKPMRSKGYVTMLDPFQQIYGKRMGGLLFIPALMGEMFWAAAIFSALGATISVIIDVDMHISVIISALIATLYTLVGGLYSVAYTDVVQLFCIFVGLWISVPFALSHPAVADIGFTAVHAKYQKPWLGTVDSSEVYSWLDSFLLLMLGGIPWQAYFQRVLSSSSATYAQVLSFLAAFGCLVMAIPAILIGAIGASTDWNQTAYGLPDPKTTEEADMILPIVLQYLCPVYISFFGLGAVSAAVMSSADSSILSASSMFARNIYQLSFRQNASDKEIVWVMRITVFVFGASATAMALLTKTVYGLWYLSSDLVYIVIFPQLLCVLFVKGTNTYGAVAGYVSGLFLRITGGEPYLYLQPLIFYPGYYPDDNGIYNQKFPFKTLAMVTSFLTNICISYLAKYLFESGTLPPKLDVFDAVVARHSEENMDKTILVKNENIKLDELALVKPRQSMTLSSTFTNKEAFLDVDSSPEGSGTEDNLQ

Vero = experiment: Vero E6 cell cytotoxicity, dose response, cytotoxicity control (AID 540298); assay type: functional; settings: Chlorocebus sabaeus
Nonstructural protein 1 = Nonstructural protein 1 (Influenza A virus, UniProt Q194T2); assay type: functional, Influenza A virus (A/California/07/2009(H1N1))
MDCK [3] = experiment: antiviral activity against H1N1 influenza, dose response, cell-based, strain KY180 (AID 540254); assay type: functional; settings: Canis lupus familiaris
MDCK [4] = experiment: MDCK cell cytotoxicity, dose response, cytotoxicity control (AID 540296); assay type: functional; settings: Canis lupus familiaris

Nonstructural protein 1, sequence (Q194T2 whole entry): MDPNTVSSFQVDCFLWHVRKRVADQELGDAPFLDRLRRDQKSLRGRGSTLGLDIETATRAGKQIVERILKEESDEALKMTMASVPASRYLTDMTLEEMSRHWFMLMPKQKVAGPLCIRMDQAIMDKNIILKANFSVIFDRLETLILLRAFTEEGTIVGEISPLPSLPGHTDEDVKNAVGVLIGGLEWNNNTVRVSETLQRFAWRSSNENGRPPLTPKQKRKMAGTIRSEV

O=C(Nc1cccc(CNCCc2c[nH]c3ccccc23)c1)c1ccccc1Cl
active: IC50 (MDCK [1]) 2.93 µM | IC50 [2] 17.4 µM | CC50 (Vero) 22.4 µM | IC50 (Nonstructural protein 1) > 100 µM | IC50 (MDCK [3]) > 100 µM | CC50 (MDCK [4]) 10.9 µM
